Values after ≈ are worked out from the molar mass of the structure shown.
Experiments:
Assay type in all cases: in vivo
[1] = tested on: Green Peach Aphid [Myzus persicae (Sulzer)]; assay: Green Peach Aphid spray on radish plants; details: sprayed to runoff on radish plants; mortality after 48 hours
Description: Radish plants (Rhaphanus sativus), approximately 2 cm tall, are transplanted into sandy loam soil in 3-inch clay pots and infested with 25-50 green peach aphids of mixed ages. Twenty-four hours later they are sprayed, to the point of runoff, with 50--50 acetone-water solutions of the test chemicals. Treated plants are held in the greenhouse and mortality is recorded after 48 hours. Test concentrations range from 0.05% down to that at which 50% mortality occurs.

[2] = tested on: German Cockroach [Blattella germanica (Linne)]; assay: German Cockroach spray; details: spray on 1-month-old nymphs; mortality after 7 days
Description: (§1) Test compounds are diluted in a 50--50 acetone-water solution. Two cc of the solutions are sprayed through a DeVilbiss type EGA hand spray gun into circular cardboard cages containing 10 l-month-old German cockroach nymphs. The test cages are covered on the bottom with cellophane and the top with tulle netting. Percent mortality is recorded 7 days later. Test concentrations range from 0.1% down to that at which approximately 50% mortality occurs.

[3] = tested on: Tobacco Budworm [Heliothis virescens (F.)]; assay: Tobacco Budworm on dipped Romaine lettuce leaves; details: larvae, Romaine lettuce leaf dip; 48 hours plus 5 days
Description: (§2) Test compounds are diluted in a 50--50 acetone-water solution. Cotyledons of hyzini squash (Calabacita abobrinha), approximately 1 × 1.5 inches, are immersed in the test solutions for 2-3 seconds and placed on a wire screen to dry. The dried leaves are placed in petri dishes containing a moistened piece of filter paper and infested with five second-instar cabbage looper larvae. Mortality of the larvae is recorded 48 hours later, and a piece of synthetic media is added to dishes containing survivors. These are then held for 5 additional days to observe for any delayed effects of the test chemicals. Test concentrations range from 0.1% down to that at which approximately 50% mortality occurs.
The procedure is the same as that used for the cabbage looper, except that sections of Romaine lettuce (Latica sativa) leaves were used instead of cotyledons of hyzini squash.

[4] = tested on: housefly (Musca domestica L.); assay: Housefly mortality, residue on aluminum dishes; details: 25 3-day old female houseflies; mortality after 48 hours
Description: Test compounds are diluted in acetone and aliquots are pipetted onto the bottom of 55 × 15 mm aluminum dishes. To insure even spreading of the chemical on the bottom of the dishes, 1 ml of acetone containing 0.02% peanut oil is also added to each dish. After all solvents have evaporated the dishes are placed in circular cardboard cages containing 25 3-day old female houseflies. The cages are covered on the bottom with cellophane and the top with tulle netting, and each contains a sugar-water saturated cotton plug for maintenance of the flies. Mortality is recorded after 48 hours. Test levels range from 100 μg/25 F. houseflies down to that at which approximately 50% mortality occurs.

[5] = tested on: Southern House Mosquito [Culex pipiens quinquefasciatus (Say)]; assay: Southern House Mosquito larvae in aqueous solution; details: 48 h, read-out: Insecticide Activity - Approximate LD50, MOS (Southern House Mosquito)
Description: Insecticidal activity is determined using third-instar larvae of the mosquito (Culex pipiens quinquefasciatus). Ten larvae are placed in a 6-ounce, number 67 Dixie wax paper cup containing 100 ml of an aqueous solution of the test chemical. The treated larvae are stored at 70°F, and 48 hours later the mortality is recorded. Test concentrations range from 0.5 PPM down to that at which approximately 50% mortality occurs.

[6] = tested on: Black Bean Aphid [Aphis fabae (Scop.)]; assay: Direct Spray Assay on Black Bean Aphid; details: direct spray on nasturtium plants; mortality after 7 days
Description: Nasturtium plants (Tropaeolum sp.), approximately 5 cm tall, are transplanted into sandy loam soil in 3-inch clay pots and infested with 25-50 black bean aphids of mixed ages. Twenty-four hours later they are sprayed, to the point of runoff, with 50--50 acetone-water solutions of the test chemicals. Treated plants are held in the greenhouse and mortality is recorded after 7 days. Test concentrations range from 0.05% down to that at which 50% mortality occurs.

[7] = tested on: Cabbage Looper [Trichoplusia ni (Hubner)]; assay: Cabbage Looper on dipped squash cotyledons; details: second-instar larvae, cotyledon dip; 48 hours plus 5 days
Description: as §2

[8] = tested on: Black Bean Aphid [Aphis fabae (Scop.)]; assay: Systemic Assay on Black Bean Aphid; details: 168 h, systemic, chemical in soil, mortality after 7 days, read-out: Insecticide Activity - Approximate LD50, BAS (Black Bean Aphid - systemic)
Description: Test chemicals are diluted in acetone and aliquots are thoroughly mixed into 500 grams of dry, sandy loam soil. The treated soil is placed in a pint ice cream carton and a nasturtium plant (Tropaeolum sp.) approximately 5 cm tall is transplanted into each carton. The plants are then infested with approximately 25 black bean aphids of mixed ages and placed in the greenhouse. Seven days later mortality is recorded. Test concentrations range from 10 PPM down to that at which approximately 50% mortality occurs.

[9] = tested on: Lygus Bug [Lygus hesperus (Knight)]; assay: Lygus Bug spray; details: spray on adult bugs; mortality after 48 hours
Description: as §1, with “are” for “are diluted”, “Devilbiss” for “DeVilbiss”, “one string bean pod and ten adult lygus bugs.” for “10 l-month-old German cockroach nymphs.”, “48 hours” for “7 days”, “0.05%” for “0.1%”

Compound	Insecticide Activity - Approximate LD50, GPA (Green Peach Aphid) [1]	Insecticide Activity - Approximate LD50, GR (German Cockroach) [2]	Insecticide Activity - Approximate LD50, TBW (Tobacco Budworm) [3]	Insecticide Activity - Approximate LD50, HF (Housefly) [4]	LC50 [5]	Insecticide Activity - Approximate LD50, BA (Black Bean Aphid - direct spray) [6]	Insecticide Activity - Approximate LD50, CL (Cabbage Looper) [7]	LC50 [8]	Insecticide Activity - Approximate LD50, LB (Lygus Bug) [9]
CCOP(=S)(OCC)SCC(=O)N=C(OC)N1CCCCC1 [Compound 3]	.008%	> .1%	> .1%	25 μg/25 F.	1 µg/mL (≈ 2.71 µM)	.001%	> .1%	> 10 µg/mL	.05%
CCN(CC)C(=NC(=O)CSP(=S)(OC)OC)OC [Compound 6]	> .05%	> .1%	> .1%	24 μg/25 F.	> 1 µg/mL	.05%	> .1%		> .05%
C=CCN(C(=NC(=O)CSP(=S)(OCC)OCC)OC)c1ccccc1 [Compound 10]		> .1%	> .1%	10 μg/25 F.	> 1 µg/mL	> .05%	> .1%		.05%
C=CCN(CC=C)C(=NC(=O)CSP(=S)(OCC)OCC)OC [Compound 1, N,N-Diallyl-N'-(O,O-diethylphosphorodithioylacetyl)-O-methylisourea]	> .05%	> .1%		10 μg/25 F.	1 µg/mL (≈ 2.63 µM)	.003%		3 µg/mL (≈ 7.88 µM)	.05%
C=CCN(C(=NC(=O)CSP(=S)(OC)OC)OC)c1ccccc1 [Compound 11]	.03%	> .1%	> .1%	30 μg/25 F.	> 1 µg/mL	.005%	> .1%	> 10 µg/mL	> .05%
CCOP(=S)(OCC)SCC(=O)N=C(OC)N(C)Cc1ccccc1 [Compound 12]		> .1%	> .1%	24 μg/25 F.	> 1 µg/mL	> .05%	> .1%		> .05%
CCOP(=S)(OCC)SCC(=O)N=C(OC)N(CC)CC [Compound 5]	.03%	.1%	> .1%	23 μg/25 F.	> 1 µg/mL	.001%	> .1%	> 10 µg/mL	> .05%
CCOP(=S)(OCC)SCC(=O)N=C(OC)N(CC)c1cccc(C)c1 [Compound 18]	.005%	.1%	.1%	22 μg/25 F.	> 1 µg/mL	.0005%	> .1%	5 µg/mL (≈ 11.9 µM)	> .05%
CCN(C(=NC(=O)CSP(=S)(OC)OC)OC)c1ccccc1 [Compound 16]		> .1%	> .1%	25 μg/25 F.	> 1 µg/mL	.03%	.1%	> 10 µg/mL	> .05%
CCOP(=S)(OCC)SCC(=O)N=C(OC)N(CC)c1ccccc1 [Compound 15]	.03%	> .1%	> .1%	30 μg/25 F.	> 1 µg/mL	.005%	.1%	2 µg/mL (≈ 4.94 µM)	> .05%
C=CCN(CC=C)C(=NC(=O)CSP(=S)(OC)OC)OC [Compound 2]		> .1%		8 μg/25 F.	> 1 µg/mL	.008%		5 µg/mL (≈ 14.2 µM)	> .05%
CCOP(=S)(OCC)SCC(=O)N=C(OC)N1CCOCC1 [Compound 4, N-morpholino-N'-(O,O-diethylphosphorodithioylacetyl)-O-methylisourea]	> .05%	> .1%		27 μg/25 F.	> 1 µg/mL	.0008%		5 µg/mL (≈ 13.5 µM)	.05%
CCN(C(=NC(=O)CSP(=S)(OC)OC)OC)c1cccc(C)c1 [Compound 19]	.03%	> .1%	> .1%	62 μg/25 F.	> 1 µg/mL	.002%	> .1%	> 10 µg/mL	> .05%
COC(=NC(=O)CSP(=S)(OC)OC)N(C)Cc1ccccc1 [Compound 13]		> .1%	> .1%	30 μg/25 F.	> 1 µg/mL	> .05%	> .1%		> .05%

Source: US3984410A, “Isourea acetylphosphate insecticides” (priority 1975, dated 1976)
